{"source": "paper PMC4721142", "about": "“Randomized controlled studies on the efficacy of antiarthritic agents in inhibiting cartilage degeneration and pain associated with progression of osteoarthritis in the rat” (Arthritis Research & Therapy, 2016)", "key": {"[1]": {"system": "MMT/MCLT rat model of OA", "assay": "MMT/MCLT trial 2 histopathology (same doses)", "type": "in vivo", "parameters": "key to Total joint score w/o femur / Total joint score: sum: cartilage degeneration scores + mean osteophyte score", "details": "mean; i.a., tacrolimus 15 ng", "excerpt": "(§1) For MMT/MCLT rat knee joints, sections were cut in 200-μm steps; stained with toluidine blue (also with a right and left half per section); and similarly analyzed for cartilage degeneration, proteoglycan loss, collagen damage, and osteophyte formation. Results were averaged across the three sections for an overall semiquantitative score. Regional differences across the tibial plateau were taken into consideration by dividing each section into three zones delineated using an ocular micrometer (outside, middle, and inside). Scores were based on the percentage of area affected within the zone.\n(§2) Cartilage degeneration in the tibia was scored on a 5-point scale as detailed in the Methods section of Additional file 1. The total extent of degeneration of the tibial plateau was measured (in micrometers) and included an analysis of cell loss, proteoglycan loss, and collagen damage. Significant cartilage degeneration reflecting any degeneration extending through more than 50 % of the cartilage thickness was also measured. Collagen damage across the medial tibial plateau (the most severely affected section of the two halves) was also quantified.\n(§3) Osteophytes and femoral cartilage degeneration were analyzed as detailed in Additional file 1. Scoring of the osteophytes and categorization into small, medium, and large was performed using an ocular micrometer. The actual osteophyte measurement (tidemark to farthest distance point extending toward the synovium) was also recorded. The femoral cartilage degeneration score and the three-zone sum of the tibial cartilage degeneration scores (mean of three levels) were summed to create a total cartilage degeneration score. The mean osteophyte score for each joint was added to this value to create a total joint score. […]\n(§4) Histopathology MMT/MCLT Model"}, "[2]": {"system": "MMT/MCLT rat model of OA", "assay": "MMT/MCLT trial 1 histopathology (same doses)", "type": "in vivo", "parameters": "key to Tibial cartilage degeneration score, 3-zone total: sum of three tibial zone scores (each on 5-point scale); key to Total joint score w/o femur / Total joint score / Total joint score without femur: sum: cartilage degeneration scores + mean osteophyte score", "details": "low or only dose", "excerpt": "as §1, §2, §3, §4"}, "[3]": {"system": "HeLa cells", "assay": "HeLa cell viability (CellTiter-Glo)", "method_in_brief": "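HeLa cells with and without drug were tested for viability by CellTiter-Glo luminescence as a toxicity read-out. In the companion NF-κB reporter assay, cells co-transfected with NF-κB firefly and Renilla luciferase plasmids (8:1) were read by Dual-Glo 5 h later, normalized to viable cells and expressed as fold over unstimulated, untreated cells.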"}}, "note": "Values joined by “and” are separate entries in the source; they are usually repeats but may differ in a detail not shown here. Identical values can stand only once.", "data": [{"smiles": "CC(C)(C)CC(=O)OCC(=O)[C@@]12OC(C)(C)O[C@@H]1C[C@H]1[C@@H]3CCC4=CC(=O)C=C[C@]4(C)[C@@]3(F)[C@@H](O)C[C@@]12C", "note": "[Triamcinolone hexacetonide]", "values": [{"measurement": "Femoral cartilage degeneration score", "setting": "[1]", "result": "2.03 ± 0.52"}, {"measurement": "Total joint score", "setting": "[1]", "result": "11.30 ± 1.21"}]}, {"smiles": "CC1=C(CO)C(=O)O[C@@H]([C@@H](C)[C@H]2CC[C@H]3[C@@H]4C[C@H]5O[C@]56[C@@H](O)C=CC(=O)[C@]6(C)[C@H]4CC[C@]23C)C1", "note": "[Withaferin A]", "values": [{"measurement": "Bone score", "setting": "[2]; mean", "result": 2.88}, {"measurement": "Depth ratio any matrix change, mean", "setting": "[2]; mean", "result": 0.38}, {"measurement": "Depth ratio any matrix change, zone 2", "setting": "[2]; mean", "result": 0.18}, {"measurement": "Femoral cartilage degeneration score", "setting": "[2]; mean", "result": "1.83 and 1.83 ± 0.52"}, {"measurement": "Tibial cartilage degeneration score, 3-zone total", "setting": "[2]; mean", "result": 6.04}, {"measurement": "Tibial cartilage degeneration score, zone 1", "setting": "[2]; mean", "result": 4.13}, {"measurement": "Tibial cartilage degeneration score, zone 2", "setting": "[2]; mean", "result": 1.88}, {"measurement": "Tibial cartilage degeneration score, zone 3", "setting": "[2]; mean", "result": 0.04}, {"measurement": "Tibial cartilage degeneration width, significant", "setting": "[2]; mean", "result": 637.50, "unit": "µm"}, {"measurement": "Tibial cartilage degeneration width, total", "setting": "[2]; mean", "result": 1262.50, "unit": "µm"}, {"measurement": "Tibial osteophyte measure", "setting": "[2]; mean", "result": 515.42, "unit": "µm"}, {"measurement": "Tibial osteophyte score", "setting": "[2]; mean", "result": 3.96}, {"measurement": "Total joint score", "setting": "[2]; mean", "result": "11.83 and 11.83 ± 0.61"}, {"measurement": "Total joint score w/o femur", "setting": "[2]; mean", "result": 10.00}, {"measurement": "% decrease, bone score", "setting": "[2]; vs saline group", "result": 12, "unit": "%"}, {"measurement": "% decrease, depth ratio mean", "setting": "[2]; vs saline group", "result": -5, "unit": "%"}, {"measurement": "% decrease, depth ratio zone 2", "setting": "[2]; vs saline group", "result": 0, "unit": "%"}, {"measurement": "% decrease, femoral cartilage degeneration score", "setting": "[2]; vs saline group", "result": 0, "unit": "%"}, {"measurement": "% decrease, osteophyte measure", "setting": "[2]; vs saline group", "result": 0, "unit": "%"}, {"measurement": "% decrease, osteophyte score", "setting": "[2]; vs saline group", "result": -1, "unit": "%"}, {"measurement": "% decrease, significant degeneration width", "setting": "[2]; vs saline group", "result": 12, "unit": "%"}, {"measurement": "% decrease, tibial score 3-zone total", "setting": "[2]; vs saline group", "result": 8, "unit": "%"}, {"measurement": "% decrease, tibial score zone 1", "setting": "[2]; vs saline group", "result": 4, "unit": "%"}, {"measurement": "% decrease, tibial score zone 2", "setting": "[2]; vs saline group", "result": 15, "unit": "%"}, {"measurement": "% decrease, tibial score zone 3", "setting": "[2]; vs saline group", "result": 0, "unit": "%"}, {"measurement": "% decrease, total degeneration width", "setting": "[2]; vs saline group", "result": 4, "unit": "%"}, {"measurement": "% decrease, total joint score", "setting": "[2]; vs saline group", "result": 4, "unit": "%"}, {"measurement": "% decrease, total joint score w/o femur", "setting": "[2]; vs saline group", "result": 4, "unit": "%"}, {"measurement": "Non-toxic concentrations", "setting": "[3]", "result": "0 to 17", "unit": "M"}]}]}
